Source: ChEMBL document CHEMBL4507308 (2021)
The source made the active and inactive calls. The rule behind the calls is not given here.

Assays:
[1] = molecular target: 5-hydroxytryptamine receptor 2C (Homo sapiens) (UniProt P28335); conditions: Compound concentration 10.0 uM
[2] = molecular target: T1, GABA-A receptor; anion channel (Rattus norvegicus) (UniProt O09028+P15431+P18506+P18508+P19969+P20236+P23574+P23576+P28471+P28473+P30191+P62813+P63079+P63138+Q91ZM7+Q9ES14); conditions: Compound concentration 10.0 uM
[3] = molecular target: 5-hydroxytryptamine receptor 6 (Homo sapiens) (UniProt P50406); conditions: Compound concentration 10.0 uM
[4] = molecular target: Beta-2 adrenergic receptor (Homo sapiens) (UniProt P07550); conditions: Compound concentration 10.0 uM
TGF-beta receptor type-1 = TGF-beta receptor type-1 (Homo sapiens, UniProt P36897); assay: NanoBRET (SGC Frankfurt) (TGFBR1)
[5] = molecular target: Beta-3 adrenergic receptor (Homo sapiens) (UniProt P13945); conditions: Compound concentration 10.0 uM
Sequence of Beta-3 adrenergic receptor (Homo sapiens) (P13945 whole entry, looked up): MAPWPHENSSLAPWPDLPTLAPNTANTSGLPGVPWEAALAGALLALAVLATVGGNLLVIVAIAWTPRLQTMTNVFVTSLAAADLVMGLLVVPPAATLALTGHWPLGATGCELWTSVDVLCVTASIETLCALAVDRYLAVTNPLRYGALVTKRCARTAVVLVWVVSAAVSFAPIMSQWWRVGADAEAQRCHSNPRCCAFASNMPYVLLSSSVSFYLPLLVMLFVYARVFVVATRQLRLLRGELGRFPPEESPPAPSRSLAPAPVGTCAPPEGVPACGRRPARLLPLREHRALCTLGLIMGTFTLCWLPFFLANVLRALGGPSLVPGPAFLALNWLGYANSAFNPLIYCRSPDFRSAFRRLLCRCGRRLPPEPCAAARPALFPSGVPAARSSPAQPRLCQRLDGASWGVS

[6] = molecular target: Alpha-1A adrenergic receptor (Homo sapiens) (UniProt P35348); conditions: Compound concentration 10.0 uM
Sequence of Alpha-1A adrenergic receptor (Homo sapiens) (P35348 whole entry): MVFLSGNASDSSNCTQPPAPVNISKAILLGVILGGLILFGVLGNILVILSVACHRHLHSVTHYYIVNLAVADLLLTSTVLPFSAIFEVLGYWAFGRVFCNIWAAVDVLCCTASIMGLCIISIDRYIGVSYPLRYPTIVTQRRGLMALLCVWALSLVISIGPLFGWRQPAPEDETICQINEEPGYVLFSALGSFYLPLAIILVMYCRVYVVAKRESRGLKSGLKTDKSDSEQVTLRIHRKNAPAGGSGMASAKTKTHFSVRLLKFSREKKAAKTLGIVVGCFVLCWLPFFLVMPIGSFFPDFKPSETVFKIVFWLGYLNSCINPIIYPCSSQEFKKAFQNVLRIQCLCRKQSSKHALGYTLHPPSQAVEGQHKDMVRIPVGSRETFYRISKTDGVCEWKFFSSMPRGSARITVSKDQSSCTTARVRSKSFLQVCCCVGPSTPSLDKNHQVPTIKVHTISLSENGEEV

[7] = molecular target: Alpha-2B adrenergic receptor (Homo sapiens) (UniProt P18089); conditions: Compound concentration 10.0 uM
[8] = molecular target: Muscarinic acetylcholine receptor M1 (Homo sapiens) (UniProt P11229); conditions: Compound concentration 10.0 uM
[9] = molecular target: Sigma intracellular receptor 2 (Homo sapiens) (UniProt Q5BJF2); conditions: Compound concentration 10.0 uM
[10] = molecular target: Muscarinic acetylcholine receptor M4 (Homo sapiens) (UniProt P08173); conditions: Compound concentration 10.0 uM
[11] = molecular target: Alpha-1B adrenergic receptor (Homo sapiens) (UniProt P35368); conditions: Compound concentration 10.0 uM
[12] = molecular target: D(1A) dopamine receptor (Homo sapiens) (UniProt P21728); conditions: Compound concentration 10.0 uM
[13] = molecular target: 5-hydroxytryptamine receptor 3A (Homo sapiens) (UniProt P46098); conditions: Compound concentration 10.0 uM
Sequence of 5-hydroxytryptamine receptor 3A (Homo sapiens) (P46098 whole entry): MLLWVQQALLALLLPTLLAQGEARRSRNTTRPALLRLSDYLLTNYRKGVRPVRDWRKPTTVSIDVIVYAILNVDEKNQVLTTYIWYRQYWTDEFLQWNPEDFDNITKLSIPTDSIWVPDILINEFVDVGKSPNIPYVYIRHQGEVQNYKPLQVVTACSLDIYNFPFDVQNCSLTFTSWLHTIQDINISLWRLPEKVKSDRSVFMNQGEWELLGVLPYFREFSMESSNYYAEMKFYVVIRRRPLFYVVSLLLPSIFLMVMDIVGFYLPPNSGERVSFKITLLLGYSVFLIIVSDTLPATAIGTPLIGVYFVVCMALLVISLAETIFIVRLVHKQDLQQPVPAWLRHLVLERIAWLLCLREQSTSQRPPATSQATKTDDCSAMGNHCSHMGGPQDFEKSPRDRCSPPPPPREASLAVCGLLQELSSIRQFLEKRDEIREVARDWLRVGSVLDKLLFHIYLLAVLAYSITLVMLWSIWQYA

[14] = molecular target: D(2) dopamine receptor (Homo sapiens) (UniProt P14416); conditions: Compound concentration 10.0 uM
[15] = molecular target: T2, 5-hydroxytryptamine receptor 2B (Homo sapiens, UniProt P41595); conditions: Compound concentration 10.0 uM
T2 sequence (P41595 whole entry): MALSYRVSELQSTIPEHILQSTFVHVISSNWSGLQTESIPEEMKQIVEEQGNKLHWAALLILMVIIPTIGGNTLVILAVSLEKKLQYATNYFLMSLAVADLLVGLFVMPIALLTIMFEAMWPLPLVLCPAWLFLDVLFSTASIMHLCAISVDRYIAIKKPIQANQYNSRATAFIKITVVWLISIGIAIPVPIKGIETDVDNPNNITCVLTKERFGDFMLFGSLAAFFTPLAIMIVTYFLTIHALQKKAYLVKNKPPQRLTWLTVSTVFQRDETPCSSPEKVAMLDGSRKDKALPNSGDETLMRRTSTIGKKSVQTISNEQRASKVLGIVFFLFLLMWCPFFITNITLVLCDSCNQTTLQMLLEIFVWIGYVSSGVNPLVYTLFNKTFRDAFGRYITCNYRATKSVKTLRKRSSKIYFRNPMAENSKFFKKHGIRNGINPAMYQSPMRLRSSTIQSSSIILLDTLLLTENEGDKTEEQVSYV

[16] = molecular target: Histamine H3 receptor (Homo sapiens) (UniProt Q9Y5N1); conditions: Compound concentration 10.0 uM
[17] = molecular target: D(4) dopamine receptor (Homo sapiens) (UniProt P21917); conditions: Compound concentration 10.0 uM
[18] = molecular target: Muscarinic acetylcholine receptor M5 (Homo sapiens) (UniProt P08912); conditions: Compound concentration 10.0 uM
[19] = molecular target: Alpha-2A adrenergic receptor (Homo sapiens) (UniProt P08913); conditions: Compound concentration 10.0 uM
Rattus norvegicus = organism: Rattus norvegicus; conditions: Compound concentration 10.0 uM
[20] = molecular target: 5-hydroxytryptamine receptor 1B (Homo sapiens) (UniProt P28222); conditions: Compound concentration 10.0 uM
[21] = molecular target: Beta-1 adrenergic receptor (Homo sapiens) (UniProt P08588); conditions: Compound concentration 10.0 uM
[22] = molecular target: D(1B) dopamine receptor (Homo sapiens) (UniProt P21918); conditions: Compound concentration 10.0 uM
[23] = molecular target: T3, Sodium-dependent dopamine transporter (Homo sapiens, UniProt Q01959); conditions: Compound concentration 10.0 uM
T3 sequence (Q01959 whole entry): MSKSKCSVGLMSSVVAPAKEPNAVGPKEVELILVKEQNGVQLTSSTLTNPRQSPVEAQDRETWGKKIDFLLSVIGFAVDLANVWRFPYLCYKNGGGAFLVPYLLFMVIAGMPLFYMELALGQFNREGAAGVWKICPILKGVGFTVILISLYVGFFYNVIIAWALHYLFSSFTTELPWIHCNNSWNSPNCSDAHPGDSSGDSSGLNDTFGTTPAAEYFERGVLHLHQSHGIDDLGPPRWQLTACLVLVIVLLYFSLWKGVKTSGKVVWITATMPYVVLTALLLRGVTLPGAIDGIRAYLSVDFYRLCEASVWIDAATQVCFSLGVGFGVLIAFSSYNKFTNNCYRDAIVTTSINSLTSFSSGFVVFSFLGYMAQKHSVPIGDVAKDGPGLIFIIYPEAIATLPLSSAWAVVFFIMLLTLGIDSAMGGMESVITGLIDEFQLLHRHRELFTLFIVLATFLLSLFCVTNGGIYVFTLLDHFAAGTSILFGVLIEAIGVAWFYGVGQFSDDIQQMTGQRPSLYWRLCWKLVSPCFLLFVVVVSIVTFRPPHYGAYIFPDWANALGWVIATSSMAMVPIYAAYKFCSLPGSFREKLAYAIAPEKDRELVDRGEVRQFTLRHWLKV

[24] = molecular target: 5-hydroxytryptamine receptor 2A (Homo sapiens) (UniProt P28223); conditions: Compound concentration 10.0 uM
Sequence of 5-hydroxytryptamine receptor 2A (Homo sapiens) (P28223 whole entry): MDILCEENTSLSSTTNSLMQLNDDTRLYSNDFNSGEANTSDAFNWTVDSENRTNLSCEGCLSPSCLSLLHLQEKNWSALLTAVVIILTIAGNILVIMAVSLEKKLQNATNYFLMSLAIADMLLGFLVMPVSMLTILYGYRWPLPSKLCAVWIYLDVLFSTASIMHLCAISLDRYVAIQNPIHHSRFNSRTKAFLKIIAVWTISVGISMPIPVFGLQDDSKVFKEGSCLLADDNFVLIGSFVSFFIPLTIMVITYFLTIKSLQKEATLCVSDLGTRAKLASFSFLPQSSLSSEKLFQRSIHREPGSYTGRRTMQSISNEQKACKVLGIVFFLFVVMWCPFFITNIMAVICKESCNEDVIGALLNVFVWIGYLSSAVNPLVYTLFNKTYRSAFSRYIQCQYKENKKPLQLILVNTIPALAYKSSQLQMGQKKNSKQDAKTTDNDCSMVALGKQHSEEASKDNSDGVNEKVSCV

[25] = molecular target: Alpha-2C adrenergic receptor (Homo sapiens) (UniProt P18825); conditions: Compound concentration 10.0 uM
[26] = molecular target: Histamine H1 receptor (Homo sapiens) (UniProt P35367); conditions: Compound concentration 10.0 uM
[27] = molecular target: GABA-A receptor; anion channel; assay: GPCRScan assay: inhibition of GABAA/BZP; format: protein-complex assay, Rattus norvegicus; design: radioligand conc. used [nm] 0.6 – 4.0, parental cells brain tissue
[28] = molecular target: Sodium-dependent serotonin transporter (Homo sapiens) (UniProt P31645); conditions: Compound concentration 10.0 uM
[29] = molecular target: 5-hydroxytryptamine receptor 7 (Homo sapiens) (UniProt P34969); conditions: Compound concentration 10.0 uM
[30] = molecular target: T2, 5-hydroxytryptamine receptor 2B; assay: GPCRScan assay: inhibition of 5-HT2B; design: radioligand conc. used [nm] 1.0 – 2.0, parental cells stable HEK
[31] = molecular target: 5-hydroxytryptamine receptor 5A (Homo sapiens) (UniProt P47898); conditions: Compound concentration 10.0 uM
[32] = molecular target: Alpha-1D adrenergic receptor (Homo sapiens) (UniProt P25100); conditions: Compound concentration 10.0 uM
[33] = molecular target: Muscarinic acetylcholine receptor M3 (Homo sapiens) (UniProt P20309); conditions: Compound concentration 10.0 uM
Sequence of Muscarinic acetylcholine receptor M3 (Homo sapiens) (P20309 whole entry, looked up): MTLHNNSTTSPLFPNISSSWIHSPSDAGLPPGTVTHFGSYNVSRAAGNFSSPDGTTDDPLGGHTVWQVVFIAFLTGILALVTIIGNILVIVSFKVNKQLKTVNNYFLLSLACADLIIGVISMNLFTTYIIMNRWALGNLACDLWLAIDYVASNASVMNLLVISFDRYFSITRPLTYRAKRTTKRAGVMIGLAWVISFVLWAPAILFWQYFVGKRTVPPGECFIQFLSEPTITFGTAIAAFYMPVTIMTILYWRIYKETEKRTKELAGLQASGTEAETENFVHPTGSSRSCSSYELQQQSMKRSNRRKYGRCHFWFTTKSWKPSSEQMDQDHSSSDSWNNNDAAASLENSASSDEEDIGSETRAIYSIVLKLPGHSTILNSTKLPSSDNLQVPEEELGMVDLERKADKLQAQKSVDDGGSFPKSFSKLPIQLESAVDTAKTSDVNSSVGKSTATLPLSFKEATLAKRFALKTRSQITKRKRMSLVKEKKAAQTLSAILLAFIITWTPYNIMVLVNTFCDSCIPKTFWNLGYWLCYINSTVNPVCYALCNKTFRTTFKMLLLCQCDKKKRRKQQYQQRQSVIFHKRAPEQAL

Activin receptor type-1B [34] = molecular target: T4, Activin receptor type-1B (Homo sapiens, UniProt P36896); assay: NanoBRET (SGC Frankfurt) (ACVR1B)
T4 sequence (P36896 whole entry): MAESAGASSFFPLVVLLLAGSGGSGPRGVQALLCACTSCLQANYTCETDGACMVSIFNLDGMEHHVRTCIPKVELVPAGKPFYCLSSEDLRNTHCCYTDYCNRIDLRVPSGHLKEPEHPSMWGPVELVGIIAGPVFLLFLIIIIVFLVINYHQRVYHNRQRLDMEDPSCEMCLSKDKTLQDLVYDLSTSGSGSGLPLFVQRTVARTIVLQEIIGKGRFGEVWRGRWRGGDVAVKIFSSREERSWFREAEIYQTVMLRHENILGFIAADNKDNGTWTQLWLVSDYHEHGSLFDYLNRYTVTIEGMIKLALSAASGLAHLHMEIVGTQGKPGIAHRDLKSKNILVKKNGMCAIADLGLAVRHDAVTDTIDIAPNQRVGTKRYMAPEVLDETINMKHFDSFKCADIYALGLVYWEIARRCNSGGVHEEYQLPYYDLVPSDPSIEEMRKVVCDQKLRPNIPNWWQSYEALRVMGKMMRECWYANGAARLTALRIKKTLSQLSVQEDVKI

[35] = molecular target: Muscarinic acetylcholine receptor M2 (Homo sapiens) (UniProt P08172); conditions: Compound concentration 10.0 uM
Sequence of Muscarinic acetylcholine receptor M2 (Homo sapiens) (P08172 whole entry): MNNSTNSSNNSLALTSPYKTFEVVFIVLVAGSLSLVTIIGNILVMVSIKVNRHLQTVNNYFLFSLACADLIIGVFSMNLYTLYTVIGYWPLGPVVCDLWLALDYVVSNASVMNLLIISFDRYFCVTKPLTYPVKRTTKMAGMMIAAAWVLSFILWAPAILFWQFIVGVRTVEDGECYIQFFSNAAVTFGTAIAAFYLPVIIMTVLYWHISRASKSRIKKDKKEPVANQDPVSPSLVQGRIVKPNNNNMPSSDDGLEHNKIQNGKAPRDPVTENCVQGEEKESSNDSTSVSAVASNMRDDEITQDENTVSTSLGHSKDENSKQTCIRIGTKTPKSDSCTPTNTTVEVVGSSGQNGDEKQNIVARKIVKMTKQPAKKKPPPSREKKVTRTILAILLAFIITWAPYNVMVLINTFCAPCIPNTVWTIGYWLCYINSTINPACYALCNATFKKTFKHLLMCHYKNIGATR

[36] = molecular target: 5-hydroxytryptamine receptor 1A (Homo sapiens) (UniProt P08908); conditions: Compound concentration 10.0 uM
Sequence of 5-hydroxytryptamine receptor 1A (Homo sapiens) (P08908 whole entry): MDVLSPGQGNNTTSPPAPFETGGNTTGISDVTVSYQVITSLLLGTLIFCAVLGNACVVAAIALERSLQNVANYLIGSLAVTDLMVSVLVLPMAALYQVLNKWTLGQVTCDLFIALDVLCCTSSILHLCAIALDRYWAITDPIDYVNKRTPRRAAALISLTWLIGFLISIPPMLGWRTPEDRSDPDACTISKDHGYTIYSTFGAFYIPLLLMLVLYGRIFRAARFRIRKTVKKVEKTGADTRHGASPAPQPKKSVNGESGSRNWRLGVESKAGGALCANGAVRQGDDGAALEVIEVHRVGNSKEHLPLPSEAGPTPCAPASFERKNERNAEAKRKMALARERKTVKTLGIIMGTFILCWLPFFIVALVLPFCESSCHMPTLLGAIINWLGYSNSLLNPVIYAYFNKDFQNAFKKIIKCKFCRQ

[37] = molecular target: T3, Sodium-dependent dopamine transporter; assay: GPCRScan assay: inhibition of DAT; design: radioligand conc. used [nm] 3.6 – 16.0, parental cells stable HEK
[38] = molecular target: Epithelial discoidin domain-containing receptor 1 (Homo sapiens, UniProt Q08345); assay: NanoBRET (SGC Frankfurt) (DDR1)
Activin receptor type-1B [39] = molecular target: T4, Activin receptor type-1B; assay: Radioactive kinase assay (ACVR1B)
[40] = molecular target: Phosphatidylinositol 4,5-bisphosphate 3-kinase catalytic subunit alpha isoform (Homo sapiens, UniProt P42336); assay: NanoBRET (SGC Frankfurt) (PIK3CA)
Activin receptor type-1B [41] = molecular target: T4, Activin receptor type-1B; assay: Lathascreen (Takeda) (ACVR1B)
[42] = molecular target: D(3) dopamine receptor (Homo sapiens) (UniProt P35462); conditions: Compound concentration 10.0 uM
[43] = molecular target: 5-hydroxytryptamine receptor 1D (Homo sapiens) (UniProt P28221); conditions: Compound concentration 10.0 uM
[44] = molecular target: Calcium/calmodulin-dependent protein kinase type 1B (Homo sapiens, UniProt Q6P2M8); assay: NanoBRET (SGC Frankfurt) (PNCK)
[45] = molecular target: Histamine H4 receptor (Homo sapiens) (UniProt Q9H3N8); conditions: Compound concentration 10.0 uM
[46] = molecular target: Tyrosine-protein kinase JAK1 (Homo sapiens, UniProt P23458); assay: NanoBRET (SGC Frankfurt) (JAK1)
[47] = molecular target: Histamine H2 receptor (Homo sapiens) (UniProt P25021); conditions: Compound concentration 10.0 uM
Activin receptor type-1B [48] = molecular target: T4, Activin receptor type-1B; assay: Reporter gene assay (ACVR1B)
[49] = molecular target: 5-hydroxytryptamine receptor 1E (Homo sapiens) (UniProt P28566); conditions: Compound concentration 10.0 uM
[50] = molecular target: T1, GABA-A receptor; anion channel (Rattus norvegicus); conditions: Compound concentration 10.0 uM; remark: listed apart in the source

Sequence of 5-hydroxytryptamine receptor 2C (Homo sapiens) (P28335 whole entry): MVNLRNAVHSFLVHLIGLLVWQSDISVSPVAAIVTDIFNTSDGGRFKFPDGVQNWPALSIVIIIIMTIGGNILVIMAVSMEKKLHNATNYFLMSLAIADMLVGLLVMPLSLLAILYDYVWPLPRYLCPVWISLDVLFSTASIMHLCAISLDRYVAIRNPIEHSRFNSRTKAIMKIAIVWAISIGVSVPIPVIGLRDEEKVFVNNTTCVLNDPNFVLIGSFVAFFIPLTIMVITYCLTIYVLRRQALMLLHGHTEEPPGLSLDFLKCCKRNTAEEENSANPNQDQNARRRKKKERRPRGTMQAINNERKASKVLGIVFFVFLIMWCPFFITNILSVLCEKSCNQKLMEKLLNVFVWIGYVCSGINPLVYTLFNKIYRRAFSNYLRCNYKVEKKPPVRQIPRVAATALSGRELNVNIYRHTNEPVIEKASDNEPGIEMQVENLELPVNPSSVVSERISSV

Cc1cnc(-c2cc(Cl)ccc2F)cc1-n1c(=O)n(CC(N)=O)c2ccccc21 [Al11]
inhibition [1]: 10.2%
inhibition [2]: 50.2%
inhibition [3]: 14.1%
inhibition [4]: 16.7%
IC50 (TGF-beta receptor type-1): > 10000 nM (not active)
inhibition [5]: 9.94%
inhibition [6]: 0.25%
inhibition [7]: 17.3%
inhibition [8]: -1.17%
inhibition [9]: 41.6%
inhibition [10]: 3.09%
inhibition [11]: 5.45%
inhibition [12]: -2.08%
inhibition [13]: 19.9%
inhibition [14]: -1.99%
inhibition [15]: 72%
inhibition [16]: -8.16%
inhibition [17]: -1.38%
inhibition [18]: 1.56%
inhibition [19]: 3.1%
inhibition (Rattus norvegicus): 27.1%
inhibition [20]: -7.07%
inhibition [21]: 25.8%
inhibition [22]: 6.12%
inhibition [23]: -4.34%
inhibition [24]: 11.2%
inhibition [25]: 17.9%
inhibition [26]: -2.43%
Ki [27]: 2750 nM
inhibition [28]: 14.3%
inhibition [29]: 12.1%
Ki ([30]; read-out: Ki): 1590 nM
Ki ([30]; read-out: pKi (converted)): 1570 nM
inhibition [31]: -0.66%
inhibition [32]: 2.71%
inhibition [33]: -5.28%
IC50 (Activin receptor type-1B [34]): > 10000 nM (not active)
inhibition [35]: 14.4%
inhibition [36]: 12%

Cc1cnc(-c2cc(Cl)ccc2F)cc1-n1c(=O)n(CC(N)=O)c2cnccc21 [TP-008]
inhibition [1]: 15.5%
inhibition [2]: 31.8%
inhibition [3]: -4.28%
Ki [37]: 10000 nM
pKi [37]: 5
inhibition [4]: 13.9%
IC50 [38]: > 20000 nM (not active)
inhibition [5]: 3.94%
inhibition [6]: -2.17%
IC50 (Activin receptor type-1B [39]): 126 nM (active)
inhibition [7]: 18.1%
inhibition [8]: -3.81%
IC50 [40]: > 20000 nM (not active)
IC50 (Activin receptor type-1B [41]): 1000 nM (active)
inhibition [9]: -2.75%
inhibition [42]: 2.27%
inhibition [10]: -3.08%
inhibition [11]: 3.76%
inhibition [12]: 12.9%
inhibition [43]: 5.53%
inhibition [13]: -6.36%
inhibition [14]: -5.48%
IC50 [44]: > 20000 nM (not active)
inhibition [45]: 26.6%
inhibition [15]: 70.5%
IC50 [46]: > 20000 nM (not active)
inhibition [16]: 30.5%
inhibition [17]: 5.41%
inhibition [18]: -5.69%
inhibition [19]: -0.767%
inhibition (Rattus norvegicus): -8.98%
inhibition [20]: 19.5%
inhibition [47]: 6.53%
inhibition [23]: 87.6%
inhibition [24]: -0.869%
IC50 (Activin receptor type-1B [48]): 526 nM (active)
inhibition [25]: -5.16%
inhibition [49]: -5.81%
inhibition [50]: 27.3%
inhibition [26]: 0.849%
inhibition [28]: 3.84%
inhibition [29]: 3.98%
Ki ([30]; read-out: Ki): 1880 nM
inhibition [31]: 16.8%
inhibition [33]: -7.48%
inhibition [35]: 2.23%
inhibition [36]: 22.9%
